Data: patent EP0411183A1, “Ascorbic acid derivative” (NIPPON HYPOX LABORATORIES INCORPORATED, priority 1989, dated 1991)

Columns and labels:
[1] = Antioxidant action examined by using stable radicals (DPPH reduction activity, M.S. Blois method); format: biochemical; settings: 0.1 mM DPPH solution in ethanol, absorbance at 517 nm after 20 minutes; read-out: 50% radical eliminating concentration
Description: Test example 1 (Antioxidant action examined by using stable radicals)
Reduction activity of α,-α-diphenyl-β-picrylhydrazyl (DPPH) which was a stable free radical was examined according to the M.S. Blois method (Nature, vol. 181, page. 1199, 1958) and used as an index to antioxidant action. Thus, specimens were added to 3 mℓ of a 0.1 mM DPPH solution in ethanol, and absorbance at a wavelength of 517 nm was measured using a spectrophotometer after 20 minutes. The difference in absorbance from the solvent control [0.5% or less of dimethylformamide (DMF)] was taken as the reduction activity.

[2] = test system: superoxide anion radicals; experiment: Effects on formazan formation in the xanthine-xanthine oxidase-Nitrotetrazolium Blue system; format: biochemical; settings: for Inhibition ratio (%) of formazan formation: phosphate buffer pH 7.8, 30°C, 10 minutes; for formazan formation (result in words): summary of Table-3
Description: Specimens were added to a 0.05 M phosphate buffer solution (pH 7.8) containing xanthine, EDTA 2Na and Nitrotetrazolium Blue (NTB) so as to provide the respective final concentrations of 5x10⁻⁵ M, 1x10⁻⁴ M and 5x10⁻⁴ M and warmed at 30°C for 3 minutes. Xanthine oxidase (manufactured by Sigma Corp.) was added, and the resulting specimens were warmed at 30°C for 10 minutes to colorimetrically determine formazan formed by superoxide anion radicals. The inhibition ratio of formazan formation was determined from the results at concentrations of 0.5 mM and 4 mM of each specimen.

| Compound | IC50 [1] [µM] | Inhibition ratio (%) of formazan formation ([2]; Concentration 0.5 mM) [%] | Inhibition ratio (%) of formazan formation ([2]; Concentration 4 mM) [%] | formazan formation (result in words) [2] |
| --- | --- | --- | --- | --- |
| CC1(C)OCC(C2OC(=O)C(O)=C2OCc2ccccn2)O1 [compound 007, L-5,6-O-isopropylidene-3-O-2′-pyridylmethylascorbic acid] | 23 |  |  |  |
| L-5,6-O-isopropylidene-3-O-(3-butanone) ascorbic acid [compound 022] | 20 | 22.6 | 26.7 | remarkably inhibited formazan formation |
| L-5,6-O-isopropylidene-3-O-methylcarbomethylascorbic acid [compound 021] | 17 | 9.2 | 47.4 | remarkably inhibited formazan formation |
